Results: US20240158446A1, “CYCLIC COMPOUND HAVING SELECTIVE INHIBITORY ACTION ON KRAS OVER HRAS AND NRAS” (CHUGAI SEIYAKU KABUSHIKI KAISHA, priority 2021, published 2024)
Read-outs that look alike come from different tables or passages of the source. *1 amine or outer side, *2 acyl side, *3 side chain or, on linkers, in order; H or OH if unused. Where a SMILES comes first, the peptide text is derived from it. Bridges are numbered along the chain shown (N, C = ends). [ ]: non-standard residue; d: D form. The star is where a group is joined. hPhe(3-Cl-4-CF3) = N[C@@H](CCc1ccc(C(F)(F)F)c(Cl)c1)C(=O)O; X37 = O=C([C@H](Cc1ccc(C(F)(F)F)cc1)N(CC1CCC1)[*:1])[*:2]; NPrPhe(4-CF3) = CCCN[C@@H](Cc1ccc(C(F)(F)F)cc1)C(=O)O; X20 = Cc1ccc(C[C@@H](C(=O)[*:2])N(CC2CCCC2)[*:1])cc1; NMeGly(cPent) = CN[C@H](C(=O)O)C1CCCC1; NMeD = CN[C@@H](CC(=O)O)C(=O)O; NMeL = CN[C@@H](CC(C)C)C(=O)O; N(Me)CH2CH2OMe = COCCN(C)*; Morpholide = C1CN(*)CCO1; NMeA = CN[C@@H](C)C(=O)O; Ac5c = NC1(C(=O)O)CCCC1; Aze = O=C(O)[C@@H]1CCN1; NEtG = CCNCC(=O)O; Sar = CNCC(=O)O

Assays:
[1] = biological target: GDP-bound NRAS wild-type protein (Homo sapiens, UniProt P01111); experiment: Binding to NRAS by surface plasmon resonance (SPR), Single Cycle Kinetics
[2] = biological target: GDP-bound KRAS wild-type protein (Homo sapiens, UniProt P01116); experiment: Binding to KRAS by surface plasmon resonance (SPR), Single Cycle Kinetics; conditions: GDP-bound KRAS wild-type protein, read-out: KRAS KD
[3] = biological target: GDP-bound HRAS wild-type protein (Homo sapiens, UniProt P01112); experiment: Binding to HRAS by surface plasmon resonance (SPR), Single Cycle Kinetics
[4] = SPR, GDP-bound NRAS wild-type protein vs GDP-bound KRAS wild-type protein
[5] = SPR, GDP-bound HRAS wild-type protein vs GDP-bound KRAS wild-type protein
[6] = SPR Single Cycle Kinetics, 1:1 binding model

Chain of GDP-bound HRAS wild-type protein (P01112 whole entry): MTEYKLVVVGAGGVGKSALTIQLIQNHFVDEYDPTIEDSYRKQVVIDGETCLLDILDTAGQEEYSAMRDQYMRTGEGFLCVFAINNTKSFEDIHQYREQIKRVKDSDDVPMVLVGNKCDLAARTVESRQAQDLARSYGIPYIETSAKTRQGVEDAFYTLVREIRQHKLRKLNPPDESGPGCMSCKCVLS
Chain of GDP-bound NRAS wild-type protein (P01111 whole entry): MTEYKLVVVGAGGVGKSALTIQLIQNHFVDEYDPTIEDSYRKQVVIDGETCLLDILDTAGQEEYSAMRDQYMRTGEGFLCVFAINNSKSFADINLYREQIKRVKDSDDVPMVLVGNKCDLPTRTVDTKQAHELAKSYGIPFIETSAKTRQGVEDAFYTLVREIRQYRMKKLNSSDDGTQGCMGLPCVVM
Chain of GDP-bound KRAS wild-type protein (P01116 whole entry): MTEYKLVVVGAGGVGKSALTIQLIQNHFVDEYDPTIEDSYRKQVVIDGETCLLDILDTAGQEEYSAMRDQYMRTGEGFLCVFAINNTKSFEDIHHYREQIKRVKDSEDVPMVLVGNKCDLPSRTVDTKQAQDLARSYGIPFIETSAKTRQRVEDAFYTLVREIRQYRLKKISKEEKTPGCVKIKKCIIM

Row | SMILES | NRAS/KRAS (ratio of KD value for NRAS to KD value for KRAS) [1, 4] | Kd ([2]; SPR, Single Cycle Kinetics) | HRAS/KRAS (ratio of KD value for HRAS to KD value for KRAS) [3, 5] | Kd [2, 6] | NRAS/KRAS (ratio of KD value with respect to NRAS to KD value with respect to KRAS) [1, 4] | HRAS/KRAS (ratio of KD value with respect to HRAS to KD value with respect to KRAS) [3, 5] | NRAS/KRAS (ratio of KD value with respect to GDP-bound NRAS wild-type protein to KD value with respect to KRAS) ([1]; SPR KD ratio NRAS/KRAS, class symbols) | HRAS/KRAS (ratio of KD value with respect to GDP-bound HRAS wild-type protein to KD value with respect to KRAS) ([3]; SPR KD ratio HRAS/KRAS, class symbols)
1 | CCC[C@H]1C(=O)N[C@@H]([C@@H](C)CC)C(=O)N(C)CC(=O)N(C)[C@H]2C/C=C\CCN(C2=O)[C@@H](Cc2ccc(C)cc2)C(=O)N(C)CC(=O)N[C@@H](CCc2ccc(C(F)(F)F)c(OC)c2)C(=O)N2C[C@H](OCC)C[C@H]2C(=O)NC2(CC(C)(C)C2)C(=O)N(C)[C@@H]([C@@H](C)CC)C(=O)N(C)[C@H](C(=O)N(C)C)CC(=O)N1C [PP3006] | A (a compound having 10 or more and less than 20 is denoted as A) | 0.41 nM | A (a compound having 10 or more and less than 20 is denoted as A) |  |  |  |  | 
2 | CCCN1C(=O)CN(C)C(=O)CN(C)C(=O)[C@H]([C@@H](C)CC)NC(=O)[C@H](CC(C)C)N(C)C(=O)C[C@@H](C(=O)N2CCOCC2)N(C)C(=O)[C@H](C2CCCC2)N(C)C(=O)C2(CCCC2)NC(=O)CN(CC)C(=O)[C@H](CCc2ccc(C(F)(F)F)c(Cl)c2)NC(=O)CN(C)C(=O)[C@@H]1Cc1ccc(C(F)(F)F)cc1 [PP0144] ([NMeL]I[Sar][Sar][NPrPhe(4-CF3)][Sar][hPhe(3-Cl-4-CF3)][NEtG][Ac5c][NMeGly(cPent)][NMeD]-Morpholide; lactam N-11) | B (a compound having 3 or more and less than 10 is denoted as B) |  | C (A compound having a KD ratio of 0.1 or more and less than 3 is denoted as C) | 0.24 nM |  |  |  | 
3 | CC[C@H](C)[C@@H]1NC(=O)[C@H](CC(C)C)N(C)C(=O)C[C@@H](C(=O)N2CCCCC2)N(C)C(=O)[C@H](C2CCCC2)N(C)C(=O)C2(CCCC2)NC(=O)[C@@H]2CCCN2C(=O)[C@H](CCc2cc(F)c(C(F)(F)F)c(F)c2)NC(=O)CN(C)C(=O)[C@H](Cc2ccc(C(F)(F)F)cc2)N2CCCC[C@@H](C2=O)N(C)C(=O)CN(C)C1=O [PP0572] |  |  |  | 0.14 nM | B (a compound having 3 or more and less than 10 is denoted as B) | B (a compound having 3 or more and less than 10 is denoted as B) |  | 
4 | C#CCN1CC(=O)N(C)[C@H]2C/C=C\CCN(C2=O)[C@@H](Cc2ccc(C(F)(F)F)cc2)C(=O)N(C)CC(=O)N[C@@H](CCc2cc(F)c(C(F)(F)F)c(F)c2)C(=O)N2C[C@H](OCC)C[C@H]2C(=O)NC2(CC(C)(C)C2)C(=O)N(C)[C@@H](C2CCCC2)C(=O)N(C)[C@H](C(=O)N(C)C)CC(=O)N(C)[C@@H](CC)C(=O)N[C@@H]([C@@H](C)CC)C1=O [PP2087] | A (a compound having 10 or more and less than 20 is denoted as A) | 0.15 nM | A (a compound having 10 or more and less than 20 is denoted as A) |  |  |  |  | 
5 | CCO[C@@H]1C[C@H]2C(=O)NC3(CCC3)C(=O)N(C)[C@@H](C3CCCC3)C(=O)N(C)[C@H](C(=O)N(C)C)CC(=O)N(C)[C@@H](CC)C(=O)N[C@@H]([C@@H](C)CC)C(=O)N3CC[C@H]3C(=O)N(C)[C@H]3C[C@@H](C)CCN(C3=O)[C@@H](Cc3ccc(C(F)(F)F)cc3)C(=O)N(C)CC(=O)N[C@@H](CCc3cc(F)c(C(F)(F)F)c(F)c3)C(=O)N2C1 [PP1021] | C (A compound having a KD ratio of 0.1 or more and less than 3 is denoted as C) | 0.057 nM | B (a compound having 3 or more and less than 10 is denoted as B) |  |  |  |  | 
6 | CC[C@H](C)[C@@H]1NC(=O)[C@H](CC(C)C)N(C)C(=O)C[C@@H](C(=O)N2CCOCC2)N(C)C(=O)[C@H](C2CCCC2)N(C)C(=O)C2(CCCC2)NC(=O)[C@@H]2CCCN2C(=O)[C@H](CCc2ccc(C(F)(F)F)c(Cl)c2)NC(=O)CN(C)C(=O)[C@H](Cc2ccc(C(F)(F)F)cc2)N(CC2CCC2)C(=O)[C@@H]2CCN2C(=O)[C@H](C)N(C)C1=O [PP0109] ([NMeL]I[NMeA][Aze][X37][Sar][hPhe(3-Cl-4-CF3)]P[Ac5c][NMeGly(cPent)][NMeD]-Morpholide; lactam N-11) | C (A compound having a KD ratio of 0.1 or more and less than 3 is denoted as C) |  | B (a compound having 3 or more and less than 10 is denoted as B) | 1.3 nM |  |  |  | 
7 | CCO[C@@H]1C[C@H]2C(=O)NC3(CC(C)(C)C3)C(=O)N(C)[C@@H](C(CC)CC)C(=O)N(C)[C@H](C(=O)N(C)C)CC(=O)N(C)[C@@H](CC3CC3)C(=O)N[C@@H]([C@@H](C)CC)C(=O)N(C)CC(=O)N(C)[C@H]3C/C=C\CCN(C3=O)[C@@H](Cc3ccc(C(F)(F)F)cc3)C(=O)N(C)CC(=O)N[C@@H](CCc3ccc(C(F)(F)F)c(Cl)c3)C(=O)N2C1 [PP2124] | AA (a compound having 20 or more is denoted as AA) | 0.26 nM | A (a compound having 10 or more and less than 20 is denoted as A) |  |  |  |  | 
8 | CC[C@H](C)[C@@H]1NC(=O)[C@@H]2CCC/C=C/c3ccc(cc3)C[C@@H](C(=O)N(C)CC(=O)N[C@@H](CCc3ccc(Cl)c(Cl)c3)C(=O)N3CCC[C@H]3C(=O)NC3(CC(C)(C)C3)C(=O)N(C)[C@@H](C3CCCC3)C(=O)N(C)[C@H](C(=O)N3CCCC3)CC(=O)N2C)N2CC/C=C\C[C@@H](C2=O)N(C)C(=O)CN(C)C1=O [PP2602] |  |  |  | 0.25 nM |  |  | A (a compound having 10 or more and less than 20 is denoted as A) | A (a compound having 10 or more and less than 20 is denoted as A)
9 | CCCN1C(=O)CN(C)C(=O)CN(C)C(=O)[C@H]([C@@H](C)CC)NC(=O)[C@H](CC(C)C)N(C)C(=O)C[C@@H](C(=O)N(C)CCOC)N(C)C(=O)[C@H](C2CCCC2)N(C)C(=O)C2(CCCC2)NC(=O)[C@@H]2CCCN2C(=O)[C@H](CCc2ccc(C(F)(F)F)c(Cl)c2)NC(=O)CN(C)C(=O)[C@@H]1Cc1ccc(C(F)(F)F)cc1 [PP0391] ([NMeL]I[Sar][Sar][NPrPhe(4-CF3)][Sar][hPhe(3-Cl-4-CF3)]P[Ac5c][NMeGly(cPent)][NMeD]-{N(Me)CH2CH2OMe}; lactam N-11) | B (a compound having 3 or more and less than 10 is denoted as B) |  | B (a compound having 3 or more and less than 10 is denoted as B) | 0.092 nM |  |  |  | 
10 | CCC[C@H]1C(=O)N[C@@H]([C@@H](C)CC)C(=O)N2CCC[C@H]2C(=O)N(C)[C@H]2C/C=C\CCN(C2=O)[C@@H](Cc2ccc(C(F)(F)F)cc2)C(=O)N(C)CC(=O)N[C@@H](CCc2ccc(C(F)(F)F)c(OC)c2)C(=O)N2C[C@H](OCC)C[C@H]2C(=O)N(C)C2(CCC2)C(=O)N(C)[C@@H](C2CCCC2)C(=O)N(C)[C@H](C(=O)N(C)C)CC(=O)N1C [PP2320, (1S,4S,10S,13S,17S,20S,26S,28R,32S,38S,42Z)-20-cyclopentyl-28-ethoxy-32-[2-[3-methoxy-4-(trifluoromethyl)phenyl]ethyl]-N,N,2,14,18,21,24,36-octamethyl-10-[(1S)-1-methylpropyl]-3,9,12,15,19,22,25,31,34,37,45-undecaoxo-13-propyl-38-[[4-(trifluoromethyl)phenyl]methyl]spiro[2,8,11,14,18,21,24,30,33,36,39-undecazatetracyclo[37.5.1.0^4,8.0^26,30]pentatetracont-42-ene-23,1′-cyclobutane]-17-carboxamide] | A (a compound having 10 or more and less than 20 is denoted as A) | 0.11 nM | A (a compound having 10 or more and less than 20 is denoted as A) |  |  |  |  | 
11 | CC[C@H](C)[C@@H]1NC(=O)[C@H](CC(C)C)N(C)C(=O)C[C@@H](C(=O)N2CCOCC2)N(C)C(=O)[C@H](C2CCCC2)N(C)C(=O)C2(CCCC2)NC(=O)[C@@H]2CCCN2C(=O)[C@H](CCc2ccc(C(F)(F)F)c(Cl)c2)NC(=O)CN(C)C(=O)[C@H](Cc2ccc(C)cc2)N(CC2CCCC2)C(=O)CN(C)C(=O)CN(C)C1=O [PP0096] ([NMeL]I[Sar][Sar][X20][Sar][hPhe(3-Cl-4-CF3)]P[Ac5c][NMeGly(cPent)][NMeD]-Morpholide; lactam N-11) | C (A compound having a KD ratio of 0.1 or more and less than 3 is denoted as C) |  | C (A compound having a KD ratio of 0.1 or more and less than 3 is denoted as C) | 2.8 nM |  |  |  | 
12 | CCO[C@@H]1C[C@H]2C(=O)NC3(CCC3)C(=O)N(C)[C@@H](C3CCCC3)C(=O)N(C)[C@H](C(=O)N(C)C)CC(=O)N(C)[C@@H](CC)C(=O)N[C@@H]([C@@H](C)CC)C(=O)N(C)[C@@H](C)C(=O)N(C)[C@H]3C/C=C\CCN(C3=O)[C@@H](Cc3ccc(C(F)(F)F)cc3)C(=O)N(C)CC(=O)N[C@@H](CCc3cc(F)c(C(F)(F)F)c(F)c3)C(=O)N2C1 [PP1054] | A (a compound having 10 or more and less than 20 is denoted as A) | 3.9 nM | B (a compound having 3 or more and less than 10 is denoted as B) |  |  |  |  | 
